Experiments:
[1] = tested on: DC vaccine-induced T-cell proliferation; details: concomitant administration of gemcitabine and the DC vaccine; cited from earlier work
[2] = tested on: resected pancreatic cancer; details: in vivo
[3] = tested on: resectable pancreatic cancer; details: postoperative gemcitabine versus no gemcitabine; cited from earlier work

Nc1ccn([C@@H]2O[C@H](CO)[C@@H](O)C2(F)F)c(=O)n1 [gemcitabine, 4-amino-1-(2-deoxy-2,2-difluoro-β-D-erythro-pentofuranosyl)pyrimidin-2(1H)-on]
vaccine-induced immune response [1]: significantly impaired
principal adverse event related to gemcitabine ([2]; human, 6 four-week cycles): grade 3/4 neutropenia
serious adverse events considered related to gemcitabine [2]: pulmonary infection and two episodes of fever
development of recurrent disease after complete resection [3]: significantly delayed

Source: US9757439B2, “Peptide vaccine comprising mutant RAS peptide and chemotherapeutic agent” (priority 2014, dated 2017)
